{
  "source": "patent US10364245B2",
  "about": "(CHIESI FARMACEUTICI S.p.A., priority 2017, dated 2019)",
  "key": {"p38 alpha": {"target": "T1, p38 alpha (Homo sapiens, UniProt Q16539)", "T1 construct": "purchased Invitrogen PV3304", "T1 sequence (Q16539 whole entry, the tested form may be a part)": "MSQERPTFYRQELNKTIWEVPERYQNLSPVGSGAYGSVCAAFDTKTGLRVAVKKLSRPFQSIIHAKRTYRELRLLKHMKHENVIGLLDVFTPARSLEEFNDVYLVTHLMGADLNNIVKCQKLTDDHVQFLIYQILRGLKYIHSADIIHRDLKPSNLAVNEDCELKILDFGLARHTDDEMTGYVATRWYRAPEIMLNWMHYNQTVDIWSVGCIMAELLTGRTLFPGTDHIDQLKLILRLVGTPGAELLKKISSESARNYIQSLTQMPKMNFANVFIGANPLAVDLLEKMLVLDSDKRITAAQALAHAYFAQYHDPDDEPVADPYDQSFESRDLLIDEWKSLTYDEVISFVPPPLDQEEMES", "assay": "P38 alpha enzyme inhibition assay (Alphascreen kinase activity assay)", "assay_type": "biochemical", "conditions": "100 pM p38 alpha, 2 hours preincubation at 25° C., 250 μM ATP, ATF-2 fusion protein; read-out: p38α inhibition", "summary_of_the_method": "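Phosphorylation of ATF-2 fusion protein (0.3 μg/ml) read by AlphaScreen with anti-phospho-ATF2 antibody after 1 h kinase reaction at 25 °C, initiated by 250 μM ATP. Compounds first incubated 2 h at 25 °C with 100 pM p38 alpha in pH 7.5 HEPES buffer, 1% DMSO. IC50 derived from concentration-response data.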"}, "[1]": {"test_system": "Peripheral Blood Mononuclear Cells (PBMCs), TNFα release", "assay": "LPS-stimulated PBMC TNFα release assay", "assay_type": "cell-based", "conditions": "human PBMC, LPS (10 ng/ml), 18 h, compound 1 h before LPS; read-out: LPS-stimulated PBMC TNFα release inhibition", "summary_of_the_method": "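TNFα in cell-free supernatant, read on MSD plates, gave % inhibition curves and IC50 (≥3 separate experiments). Healthy-donor PBMCs had 1 h compound exposure at 37 °C in 1% FBS medium, then 18 h stimulation with 10 ng/ml LPS, after a 3 h serum-free rest.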"}},
  "note": "pIC50: −log10 of the molar value. Where a name gives a salt, the structure may show the parent alone.",
  "data": [
    {"compound": "CN(C)CCNC(=O)c1nc(NC(=O)N[C@H]2CC[C@@H](Oc3ccc4nnc(C5CCCC5)n4c3)c3ccccc32)cc(C(C)(C)C)n1", "note": "[Example 74, 4-(tert-butyl)-6-(3-((1S,4R)-4-((3-cyclopentyl-[1,2,4]triazolo[4,3-a]pyridin-6-yl)oxy)-1,2,3,4-tetrahydronaphthalen-1-yl)ureido)-N-(2-(dimethylamino)ethyl)-pyrimidine-2-carboxamide]", "values": [
      {"measurement": "pIC50", "setting": "p38 alpha", "result": "8.00 to 9.00"},
      {"measurement": "pIC50", "setting": "[1]", "result": "< 8.30"}
    ]},
    {"compound": "CCC(CC)c1nnc2ccc(O[C@@H]3CC[C@H](NC(=O)Nc4cc(C(C)(C)C)nc(C(=O)NCCN5CCOCC5)n4)c4ccccc43)cn12", "note": "[Example 69, 4-(tert-butyl)-N-(2-morpholinoethyl)-6-(3-((1S,4R)-4-((3-(pentan-3-yl)-[1,2,4]triazolo[4,3-a]pyridin-6-yl)oxy)-1,2,3,4-tetrahydronaphthalen-1-yl)ureido)pyrimidine-2-carboxamide]", "values": [
      {"measurement": "pIC50", "setting": "p38 alpha", "result": "> 9.00"},
      {"measurement": "pIC50", "setting": "[1]", "result": "8.30 to 9.00"}
    ]},
    {"compound": "COCCN(C)C(C)(C)CNC(=O)c1nc(NC(=O)N[C@H]2CC[C@@H](Oc3ccc4nnc(C(C)(C)COC)n4c3)c3ccccc32)cc(C(C)(C)C)n1", "note": "[Example 178, 4-(tert-butyl)-6-(3-((1S,4R)-4-((3-(1-methoxy-2-methylpropan-2-yl)-[1,2,4]triazolo[4,3-a]pyridin-6-yl)oxy)-1,2,3,4-tetrahydronaphthalen-1-yl)ureido)-N-(2-((2-methoxyethyl)(methyl)-amino)-2-methylpropyl)pyrimidine-2-carboxamide]", "values": [
      {"measurement": "pIC50", "setting": "p38 alpha", "result": "8.00 to 9.00"},
      {"measurement": "pIC50", "setting": "[1]", "result": "8.30 to 9.00"}
    ]},
    {"compound": "C[C@H]1CCCCN1c1nnc2ccc(O[C@@H]3CC[C@H](NC(=O)Nc4cc(C(C)(C)C)nc(C(=O)NCCN(C)C)n4)c4ccccc43)cn12", "note": "[Example 37, 4-(tert-Butyl)-N-(2-(dimethylamino)ethyl)-6-(3-((1S,4R)-4-((3-((S)-2-methylpiperidin-1-yl)-[1,2,4]triazolo[4,3-a]pyridin-6-yl)oxy)-1,2,3,4-tetrahydronaphthalen-1-yl)ureido)pyrimidine-2-carboxamide]", "values": [
      {"measurement": "pIC50", "setting": "p38 alpha", "result": "> 9.00"},
      {"measurement": "pIC50", "setting": "[1]", "result": "< 8.30"}
    ]},
    {"compound": "COC1CN(CCNC(=O)c2cc(NC(=O)N[C@H]3CC[C@@H](Oc4ccc5nnc(C(C)(C)C)n5c4)c4ccccc43)cc(C(C)(C)C)n2)C1", "note": "[Example 193, 6-(tert-butyl)-4-(3-((1S,4R)-4-((3-(tert-butyl)-[1,2,4]triazolo[4,3-a]pyridin-6-yl)oxy)-1,2,3,4-tetrahydronaphthalen-1-yl)ureido)-N-(2-(3-methoxyazetidin-1-yl)ethyl)picolinainide]", "values": [
      {"measurement": "pIC50", "setting": "p38 alpha", "result": "8.00 to 9.00"},
      {"measurement": "pIC50", "setting": "[1]", "result": "8.30 to 9.00"}
    ]},
    {"compound": "CN1CCC[C@@]1(C)c1nnc2ccc(O[C@@H]3CC[C@H](NC(=O)Nc4cc(C(C)(C)C)nc(NS(C)(=O)=O)n4)c4ccccc43)cn12", "note": "[Example 30, N-(4-(tert-Butyl)-6-(3-((1S,4R)-4-((3-((S)-1,2-dimethylpyrrolidin-2-yl)-[1,2,4]triazolo[4,3-a]pyridin-6-yl)oxy)-1,2,3,4-tetrahydronaphthalen-1-yl)ureido)pyrimidin-2-yl)methanesulfonamide]", "values": [
      {"measurement": "pIC50", "setting": "p38 alpha", "result": "8.00 to 9.00"},
      {"measurement": "pIC50", "setting": "[1]", "result": "8.30 to 9.00"}
    ]},
    {"compound": "COCCN(C)CCNC(=O)c1nc(NC(=O)N[C@H]2CC[C@@H](Oc3ccc4nnc(C(C)(C)C)n4c3)c3ccccc32)cc(C(C)(C)C)n1", "note": "[Example 67, 4-(tert-butyl)-6-(3-((1S,4R)-4-((3-(tert-butyl)-[1,2,4]triazolo[4,3-a]pyridin-6-yl)oxy)-1,2,3,4-tetrahydronaphthalen-1-yl)ureido)-N-(2-((2-methoxyethyl)(methyl)amino)ethyl)pyrimidine-2-carboxamide]", "values": [
      {"measurement": "pIC50", "setting": "p38 alpha", "result": "8.00 to 9.00"},
      {"measurement": "pIC50", "setting": "[1]", "result": "8.30 to 9.00"}
    ]},
    {"compound": "CCC(CC)c1nnc2ccc(O[C@@H]3CC[C@H](NC(=O)Nc4cc(C(C)(C)C)nc(C(=O)NCC(C)(C)N(C)C)n4)c4ccccc43)cn12", "note": "[Example 175, 4-(tert-butyl)-N-(2-(dimethylamino)-2-methylpropyl)-6-(3-((1S,4R)-4-((3-(pentan-3-yl)-[1,2,4]triazolo[4,3-a]pyridin-6-yl)oxy)-1,2,3,4-tetrahydronaphthalen-1-yl)ureido)pyrimidine-2-carboxamide formate salt]", "values": [
      {"measurement": "pIC50", "setting": "p38 alpha", "result": "> 9.00"},
      {"measurement": "pIC50", "setting": "[1]", "result": "8.30 to 9.00"}
    ]},
    {"compound": "CCN(CC)c1nnc2ccc(O[C@@H]3CC[C@H](NC(=O)Nc4cc(C(=O)NCC(C)(C)N(C)C)nc(C(C)(C)C)c4)c4ccccc43)cn12", "note": "[Example 204, 6-(tert-Butyl)-4-(3-((1S,4R)-4-((3-(diethylamino)-[1,2,4]triazolo[4,3-a]pyridin-6-yl)oxy)-1,2,3,4-tetrahydronaphthalen-1-yl)ureido)-N-(2-(dimethylamino)-2-methylpropyl)-picolinamide formate salt]", "values": [
      {"measurement": "pIC50", "setting": "p38 alpha", "result": "> 9.00"},
      {"measurement": "pIC50", "setting": "[1]", "result": "8.30 to 9.00"}
    ]},
    {"compound": "CC(C)(C)c1cc(NC(=O)N[C@H]2CC[C@@H](Oc3ccc4nnc(C(C)(C)C)n4c3)c3ccccc32)nc(CNC(=O)CCN2CCOCC2)n1", "note": "[Example 103, N-((4-(tert-butyl)-6-(3-((1S,4R)-4-((3-(tert-butyl)-[1,2,4]-triazolo[4,3-a]pyridin-6-yl)oxy)-1,2,3,4-tetrahydronaphthalen-1-yl)ureido)pyrimidin-2-yl)methyl)-3-morpholinopropanamide]", "values": [
      {"measurement": "pIC50", "setting": "p38 alpha", "result": "8.00 to 9.00"},
      {"measurement": "pIC50", "setting": "[1]", "result": "< 8.30"}
    ]},
    {"compound": "CN(CCO)CCNC(=O)c1nc(NC(=O)N[C@H]2CC[C@@H](Oc3ccc4nnc([C@@H]5COCCN5C)n4c3)c3ccccc32)cc(C(C)(C)C)n1", "note": "[Example 215, 4-(tert-Butyl)-N-(2-((2-hydroxyethyl)(methyl)amino)ethyl)-6-(3-((1S,4R)-4-((3-((R)-4-methylmorpholin-3-yl)-[1,2,4]triazolo[4,3-a]pyridin-6-yl)oxy)-1,2,3,4-tetrahydronaphthalen-1-yl)ureido)pyrimidine-2-carboxamide]", "values": [
      {"measurement": "pIC50", "setting": "p38 alpha", "result": "8.00 to 9.00"},
      {"measurement": "pIC50", "setting": "[1]", "result": "< 8.30"}
    ]},
    {"compound": "CN(CCO)Cc1nc(NC(=O)N[C@H]2CC[C@@H](Oc3ccc4nnc(C(C)(C)C)n4c3)c3ccccc32)cc(C(C)(C)C)n1", "note": "[Example 88, 1-(6-(tert-butyl)-2-(((2-hydroxyethyl)(methyl)amino)methyl)pyrimidin-4-yl)-3-((1S,4R)-4-((3-(tert-butyl)-[1,2,4]triazolo[4,3-a]pyridin-6-yl)oxy)-1,2,3,4-tetrahydronaphthalen-1-yl)urea]", "values": [
      {"measurement": "pIC50", "setting": "p38 alpha", "result": "8.00 to 9.00"},
      {"measurement": "pIC50", "setting": "[1]", "result": "< 8.30"}
    ]},
    {"compound": "CC(C)(C)c1cc(NC(=O)N[C@H]2CC[C@@H](Oc3ccc4nnc(C(C)(C)C)n4c3)c3ccccc32)nc(CN2CCNC(=O)C2)n1", "note": "[Example 113, 1-(6-(tert-Butyl)-2-((3-oxopiperazin-1-yl)methyl)pyrimidin-4-yl)-3-((1S,4R)-4-((3-(tert-butyl)-[1,2,4]-triazolo[4,3-a]pyridin-6-yl)oxy)-1,2,3,4-tetrahydronaphthalen-1-yl)urea partial formate salt]", "values": [
      {"measurement": "pIC50", "setting": "p38 alpha", "result": "8.00 to 9.00"},
      {"measurement": "pIC50", "setting": "[1]", "result": "< 8.30"}
    ]},
    {"compound": "COCc1nc(NC(=O)N[C@H]2CC[C@@H](Oc3ccc4nnc([C@]5(C)CCCN5C)n4c3)c3ccccc32)cc(C(C)(C)C)n1", "note": "[Example 43, 1-(6-(tert-Butyl)-2-(methoxymethyl)pyrimidin-4-yl)-3-((1S,4R)-4-((3-((S)-1,2-dimethylpyrrolidin-2-yl)-[1,2,4]triazolo[4,3-a]pyridin-6-yl)oxy)-1,2,3,4-tetrahydronaphthalen-1-yl)urea]", "values": [
      {"measurement": "pIC50", "setting": "p38 alpha", "result": "8.00 to 9.00"},
      {"measurement": "pIC50", "setting": "[1]", "result": "8.30 to 9.00"}
    ]},
    {"compound": "CN(C)CCNC(=O)c1nc(NC(=O)N[C@H]2CC[C@@H](Oc3ccc4nnc(C(C)(C)C)n4c3)c3ccccc32)cc(C(C)(C)C)n1", "note": "[Example 1, 4-(tert-Butyl)-6-(3-((1S,4R)-4-((3-(tert-butyl)-[1,2,4]triazolo[4,3-a]pyridin-6-yl)oxy)-1,2,3,4-tetrahydronaphthalen-1-yl)ureido)-N-(2-(dimethylamino)ethyl)-pyrimidine-2-carboxamide]", "values": [
      {"measurement": "pIC50", "setting": "p38 alpha", "result": "> 9.00"},
      {"measurement": "pIC50", "setting": "[1]", "result": "8.30 to 9.00"}
    ]},
    {"compound": "COC(C)(C)c1nnc2ccc(O[C@@H]3CC[C@H](NC(=O)Nc4cc(C(C)(C)C)nc(C(=O)NCCN5CCCOCC5)n4)c4ccccc43)cn12", "note": "[Example 12, N-(2-(1,4-Oxazepan-4-yl)ethyl)-4-(tert-butyl)-6-(3-((1S,4R)-4-((3-(2-methoxypropan-2-yl)-[1,2,4]triazolo[4,3-a]pyridin-6-yl)oxy)-1,2,3,4-tetrahydronaphthalen-1-yl)ureido)pyrimidine-2-carboxamide]", "values": [
      {"measurement": "pIC50", "setting": "p38 alpha", "result": "8.00 to 9.00"},
      {"measurement": "pIC50", "setting": "[1]", "result": "8.30 to 9.00"}
    ]},
    {"compound": "CC(C)(C)c1cc(NC(=O)N[C@H]2CC[C@@H](Oc3ccc4nnc(C(C)(C)C)n4c3)c3ccccc32)nc(C(=O)NCCN2CCCOCC2)n1", "note": "[Example 89, N-(2-(1,4-oxazepan-4-yl)ethyl)-4-(tert-butyl)-6-(3-((1S,4R)-4-((3-(tert-butyl)-[1,2,4]triazolo[4,3-a]pyridin-6-yl)oxy)-1,2,3,4-tetrahydronaphthalen-1-yl)ureido)pyrimidine-2-carboxamide]", "values": [
      {"measurement": "pIC50", "setting": "p38 alpha", "result": "8.00 to 9.00"},
      {"measurement": "pIC50", "setting": "[1]", "result": "8.30 to 9.00"}
    ]},
    {"compound": "CC(C)(C)c1cc(NC(=O)N[C@H]2CC[C@@H](Oc3ccc4nnc(C(C)(C)C)n4c3)c3ccccc32)nc(CN(CCO)CCO)n1", "note": "[Example 87, 1-(2-((bis(2-hydroxyethyl)amino)methyl)-6-(tert-butyl)pyrimidin-4-yl)-3-((1S,4R)-4-((3-(tert-butyl)-[1,2,4]triazolo[4,3-a]pyridin-6-yl)oxy)-1,2,3,4-tetrahydronaphthalen-1-yl)urea]", "values": [
      {"measurement": "pIC50", "setting": "p38 alpha", "result": "> 9.00"},
      {"measurement": "pIC50", "setting": "[1]", "result": "< 8.30"}
    ]},
    {"compound": "CN1CCC[C@@]1(C)c1nnc2ccc(O[C@@H]3CC[C@H](NC(=O)Nc4cc(C(C)(C)C)nc(C(=O)NCCO)n4)c4ccccc43)cn12", "note": "[Example 29, 4-(tert-Butyl)-6-(3-((1S,4R)-4-((3-((S)-1,2-dimethylpyrrolidin-2-yl)-[1,2,4]triazolo[4,3-a]pyridin-6-yl)oxy)-1,2,3,4-tetrahydronaphthalen-1-yl)ureido)-N-(2-hydroxyethyl)pyrimidine-2-carboxamide]", "values": [
      {"measurement": "pIC50", "setting": "p38 alpha", "result": "> 9.00"},
      {"measurement": "pIC50", "setting": "[1]", "result": "> 9.00"}
    ]}
  ]
}
